Reference: patent US20070037870A1, “Novel substance having alpha-glucosidase inhibiting activity and food containing the same” (MORISHITA JINTAN CO., LTD., priority 2003, published 2007)

Tests used:
[1] = target: T1, α-glucosidase (sucrase) (Rattus norvegicus, UniProt P23739); assay: Measurement of sucrase (α-glucosidase) inhibiting activity with crude enzyme from rat intestinal acetone powder; assay type: biochemical; details: for IC50: crude rat intestinal enzyme, sucrose substrate, 0.1 M maleate buffer pH 6.0, 37° C., 30 minutes; for α-glucosidase inhibiting activity (in words): summary of Table 1 results
T1 construct: The resulting supernatant was separated as a crude enzyme stock solution; tissue SIGMA; host or cells: rat intestine (acetone powder)
T1 sequence (P23739 whole entry): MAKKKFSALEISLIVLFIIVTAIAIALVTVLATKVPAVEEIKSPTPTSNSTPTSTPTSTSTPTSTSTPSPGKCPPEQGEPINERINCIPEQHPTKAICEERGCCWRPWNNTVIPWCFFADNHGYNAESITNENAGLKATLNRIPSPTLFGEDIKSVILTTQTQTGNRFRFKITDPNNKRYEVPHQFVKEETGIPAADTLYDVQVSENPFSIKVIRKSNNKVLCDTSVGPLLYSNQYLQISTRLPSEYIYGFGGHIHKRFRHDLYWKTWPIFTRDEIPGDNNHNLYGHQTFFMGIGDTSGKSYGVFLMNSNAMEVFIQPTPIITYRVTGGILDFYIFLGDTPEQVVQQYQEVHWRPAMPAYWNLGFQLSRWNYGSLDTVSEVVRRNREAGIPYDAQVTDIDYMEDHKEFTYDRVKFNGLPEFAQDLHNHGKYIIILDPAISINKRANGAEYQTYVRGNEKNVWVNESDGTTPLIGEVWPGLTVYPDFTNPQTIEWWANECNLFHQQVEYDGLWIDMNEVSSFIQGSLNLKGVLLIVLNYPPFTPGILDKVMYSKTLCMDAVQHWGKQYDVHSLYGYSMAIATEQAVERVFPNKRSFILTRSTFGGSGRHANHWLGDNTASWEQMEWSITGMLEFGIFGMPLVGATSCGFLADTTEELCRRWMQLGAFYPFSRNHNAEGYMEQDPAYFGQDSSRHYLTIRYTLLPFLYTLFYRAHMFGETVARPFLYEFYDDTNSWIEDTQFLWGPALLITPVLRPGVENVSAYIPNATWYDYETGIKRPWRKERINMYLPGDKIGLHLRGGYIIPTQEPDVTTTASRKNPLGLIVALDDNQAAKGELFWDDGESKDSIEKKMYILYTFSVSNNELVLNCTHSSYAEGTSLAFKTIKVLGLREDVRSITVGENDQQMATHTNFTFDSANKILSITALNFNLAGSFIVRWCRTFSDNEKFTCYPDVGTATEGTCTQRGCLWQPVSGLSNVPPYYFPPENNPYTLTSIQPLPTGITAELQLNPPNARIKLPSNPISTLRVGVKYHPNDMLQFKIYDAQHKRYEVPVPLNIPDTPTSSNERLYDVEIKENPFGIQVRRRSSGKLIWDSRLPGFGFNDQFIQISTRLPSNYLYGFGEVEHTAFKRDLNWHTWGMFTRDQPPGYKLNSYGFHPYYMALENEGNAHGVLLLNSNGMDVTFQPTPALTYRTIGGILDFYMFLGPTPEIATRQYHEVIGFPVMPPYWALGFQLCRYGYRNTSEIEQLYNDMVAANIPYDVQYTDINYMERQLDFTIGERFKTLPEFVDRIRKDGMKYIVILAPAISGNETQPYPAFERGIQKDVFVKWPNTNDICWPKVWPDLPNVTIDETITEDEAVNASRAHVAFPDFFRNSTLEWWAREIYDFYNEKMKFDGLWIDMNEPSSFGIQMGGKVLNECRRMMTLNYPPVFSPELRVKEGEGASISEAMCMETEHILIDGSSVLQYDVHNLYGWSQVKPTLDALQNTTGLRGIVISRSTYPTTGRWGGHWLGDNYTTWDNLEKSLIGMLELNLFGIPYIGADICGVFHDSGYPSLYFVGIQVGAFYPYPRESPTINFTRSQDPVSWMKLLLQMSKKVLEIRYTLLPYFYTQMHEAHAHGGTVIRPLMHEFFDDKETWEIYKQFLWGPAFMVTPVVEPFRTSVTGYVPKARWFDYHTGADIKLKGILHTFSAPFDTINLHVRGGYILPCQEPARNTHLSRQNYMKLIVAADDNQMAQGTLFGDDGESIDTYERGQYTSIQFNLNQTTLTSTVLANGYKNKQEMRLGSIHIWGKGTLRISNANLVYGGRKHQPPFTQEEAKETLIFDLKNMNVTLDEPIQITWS
Method: One gram intestinal acetone powder rat (manufactured by SIGMA) was suspended in 10 mL of 0.1 M maleate buffer, pH 6.0 and then centrifuged (3,000 rpm, 4° C., 20 min.). The resulting supernatant was separated as a crude enzyme stock solution. This crude enzyme stock solution was diluted at the degree of dilution previously determined in the following control test, to prepare a crude enzyme dilution which was then used in the subsequent measurement of sucrase inhibiting activity.
A buffer solution 50 μL and 100 μL of 74 mM aqueous sucrose solution were pipetted into each test tube and pre-heated for 3 minutes in a water bath at 37° C. A diluted crude enzyme stock solution 50 μL was added to this test tube and reacted at 37° C. for 30 minutes. After the reaction was finished, 800 μL purified water was added. The mixture was further heated at 80° C. for 3 minutes thereby inactivating the enzyme to terminate the reaction. The concentration of glucose in the reaction solution was quantified by using a commercial kit/mutarotase-glucose oxidase method (Glucose CII Test Wako, manufactured by Wako Pure Chemical Industries, Ltd.).
As the test substance, the reticulanol of the present invention, and Salacinol and kotalanol for comparison, all of which were obtained in Preparative Example 2 above, were used. A solution […] of the test substance in 0.1 M maleate buffer, pH 6.0 was introduced into each test tube (concentration of the test substance: 3 to 30 μg/mL), and 100 μL of 74 mM aqueous sucrose was pipetted into each test tube and pre-heated for 3 minutes in a water bath at 37° C. The above crude enzyme dilution 50 μL was added to each test tube and reacted at 37° C. for 30 minutes. After the reaction was finished, 800 μL purified water was added to each test tube, and the mixture was further heated at 80° C. for 3 minutes thereby inactivating the enzyme to terminate the reaction.
After the reaction was terminated, the concentration of glucose in the reaction solution was quantified by using the glucose CII Test Wako (manufactured by Wako Pure Chemical Industries, Ltd.).
An aqueous sucrose solution 100 μL was mixed with 50 μL of each test substance dissolved in a maleate buffer. Purified water 800 μL was added thereto and then 50 μL crude enzyme dilution was added thereto, and immediately the mixture was heated to […] to inactivate the enzyme. Thereafter, the concentration of glucose in the reaction solution was measured by the same method as described above.
Sucrase inhibiting activity was calculated from the following equation: Sucrase inhibiting activity (%)={(Glc0−Glcx)/Glc0}×100 wherein Glcx is a value obtained by subtracting the glucose concentration in the corresponding blank test from the concentration of glucose in the test sample, and Glc0 is the glucose concentration in the corresponding control.
An inhibition curve was prepared by plotting the inhibiting activity (%) calculated by the above equation on the ordinate and the concentration of each test substance (μg/mL) on the abscissa. From this inhibition curve, 50% inhibition concentration (IC50 value) was calculated as an indicator of sucrase inhibiting activity.

[2] = test system: α-glucosidase; details: compared with marketed synthetic medicine Glucobay; cited from earlier work

Structure (SMILES)	α-glucosidase inhibiting activity relative to Salacinol ([1]; compared with Salacinol)	IC50 [1] [nM]	α-glucosidase inhibiting activity (in words) [1]	α-glucosidase inhibiting activity compared with Glucobay [2]
O=S(=O)([O-])OC(C(O)C[S+]1CC(O)C(O)C1CO)C(O)C(O)CO (stereo not drawn) [Reticulanol, reticulanol]	at least twice as high	963	very strong α-glucosidase inhibiting activity	
O=S(=O)([O-])OC(C(O)C[S+]1CC(O)C(O)C1CO)C(O)C(O)C(O)CO (stereo not drawn) [Kotalanol, kotalanol]		424	very strong α-glucosidase inhibiting activity	almost equivalent
O=S(=O)([O-])O[C@H](CO)[C@@H](O)C[S+]1C[C@H](O)[C@@H](O)[C@@H]1CO (stereo partly drawn) [Salacinol]		2420	very strong α-glucosidase inhibiting activity	almost equivalent
